Assays:
CDK9 = target: T1, CDK9 (Homo sapiens, UniProt P50750); assay: CDK protein degradation activity (Western blotting), CDK9; assay type: cell-based; conditions: MDA-MB-231 cells, 16 hours, Western blot
T1 construct: endogenous in cells; host or cells: MDA-MB-231
In short: (§1)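 Protein levels were read by Western blot densitometry, tubulin serving as loading reference. Beforehand, MDA-MB-231 cells had been exposed for 16 hours to 100 nM, 1 μM or 10 μM compound, DMSO as control.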

CDK2 = target: T2, CDK2 (Homo sapiens, UniProt P24941); assay: CDK protein degradation activity (Western blotting), CDK2; assay type: cell-based; conditions: MDA-MB-231 cells, 16 hours, Western blot
T2 construct: endogenous in cells; host or cells: MDA-MB-231
In short: as §1

T1 sequence (P50750 whole entry): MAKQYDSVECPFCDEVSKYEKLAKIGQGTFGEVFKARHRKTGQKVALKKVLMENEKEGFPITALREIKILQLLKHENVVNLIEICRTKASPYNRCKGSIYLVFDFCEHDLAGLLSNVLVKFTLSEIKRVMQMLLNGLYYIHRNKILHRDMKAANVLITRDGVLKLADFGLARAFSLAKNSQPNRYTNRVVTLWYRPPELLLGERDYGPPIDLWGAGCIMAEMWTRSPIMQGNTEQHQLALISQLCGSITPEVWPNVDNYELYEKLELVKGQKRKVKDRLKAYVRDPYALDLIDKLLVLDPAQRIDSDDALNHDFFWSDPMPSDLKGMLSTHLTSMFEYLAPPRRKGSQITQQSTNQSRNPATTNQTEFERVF

SMILES	Enzyme degradation CDK9 (% remaining) @ 0.1 μM (CDK9)	Enzyme degradation CDK9 (% remaining) @ 1 μM (CDK9)	Enzyme degradation CDK9 (% remaining) @ 10 μM (CDK9)	Enzyme degradation CDK2 (% remaining) @ 0.1 μM (CDK2)	Enzyme degradation CDK2 (% remaining) @ 1 μM (CDK2)	Enzyme degradation CDK2 (% remaining) @ 10 μM (CDK2)
O=C1CC[C@H](N2C(=O)c3cc(F)c(N4CCC(CN5CCN(c6ccc(Nc7ncnc8c7ncn8C7CC(NC(=O)c8c(Cl)cccc8Cl)C7)cc6)CC5)CC4)cc3C2=O)C(=O)N1 (stereo partly drawn) [Compound 299, 2,6-dichloro-N-((1s,3s)-3-(6-((4-(4-((1-(2-(2,6-dioxopiperidin-3-yl)-6-fluoro-1,3-dioxoisoindolin-5-yl)piperidin-4-yl)methyl)piperazin-1-yl)phenyl)amino)-9H-purin-9-yl)cyclobutyl)benzamide]	0/0/0%	0/0/0%	0/0/0%	30/30/30%	30/30/30%	30/30/30%
O=C1CC[C@@H](c2cccc(OCC(=O)N3CCC(CN4CCC(c5ccc(Nc6ncnc7c6ncn7C6CC(NC(=O)Cc7ccccc7)C6)cc5)CC4)CC3)c2)C(=O)N1 (stereo partly drawn) [Compound 282, N-((1s,3s)-3-(6-((4-(1-((1-(2-(3-(2,6-dioxopiperidin-3-yl)phenoxy)acetyl)piperidin-4-yl)methyl)piperidin-4-yl)phenyl)amino)-9H-purin-9-yl)cyclobutyl)-2-phenylacetamide]	0/0/0%	0/0/0%	0/0/0%	10%	20%	20%
O=C1CC[C@H](N2C(=O)c3ccc(N4CCC(C(=O)N5CCN(C6CCN(c7ccc(Nc8ncnc9c8ncn9C8CC(NC(=O)Cc9ccccc9)C8)cc7)CC6)CC5)CC4)cc3C2=O)C(=O)N1 (stereo partly drawn) [Compound 365, N-((1s,3s)-3-(6-((4-(4-(4-(1-(2-(2,6-dioxopiperidin-3-yl)-1,3-dioxoisoindolin-5-yl)piperidin-4-carbonyl)piperazin-1-yl)piperidin-1-yl)phenyl)amino)-9H-purin-9-yl)cyclobutyl)-2-phenylacetamide]	30%	10%	10%	60/60/60%	60/60/60%	60/60/60%
O=C1CC[C@H](N2C(=O)c3cccc(OCC(=O)N4CCC(CN5CCC(CNc6ncnc7c6ncn7C6CC(NC(=O)Cc7ccccc7)C6)CC5)CC4)c3C2=O)C(=O)N1 (stereo partly drawn) [Compound 182, N-((1s,3s)-3-(6-(((1-((1-(2-((2-(2,6-dioxopiperidin-3-yl)-1,3-dioxoisoindolin-4-yl)oxy)acetyl)piperidin-4-yl)methyl)piperidin-4-yl)methyl)amino)-9H-purin-9-yl)cyclobutyl)-2-phenylacetamide]	20%	10%	0%	70%	50%	50%
O=C1CCC(N2C(=O)c3cccc(NCC(=O)N4CC(N5CCC6(CC5)CC(N5CCN(c7ccc(Nc8ncnc9c8ncn9[C@H]8C[C@@H](NC(=O)Cc9ccccc9)C8)cc7)CC5)C6)C4)c3C2=O)C(=O)N1 (stereo partly drawn) [Compound 277, N-((1s,3s)-3-(6-((4-(4-(7-(1-((2-(2,6-dioxopiperidin-3-yl)-1,3-dioxoisoindolin-4-yl)glycyl)azetidin-3-yl)-7-azaspiro[3.5]nonan-2-yl)piperazin-1-yl)phenyl)amino)-9H-purin-9-yl)cyclobutyl)-2-phenylacetamide]	0/0/0%	0/0/0%	0/0/0%	30/30/30%	30/30/30%	30/30/30%
O=C(Cc1cccc(NC2=CC(=O)N(C3CCC(=O)NC3=O)C2=O)c1)NC[C@H]1CC[C@H](CN2CCN(c3ccc(Nc4ncnc5c4ncn5[C@H]4C[C@@H](NC(=O)Cc5ccccc5)C4)cc3)CC2)CC1 (stereo partly drawn) [Compound 200, 2-(3-((1-(2,6-dioxopiperidin-3-yl)-2,5-dioxo-2,5-dihydro-1H-pyrrol-3-yl)amino)phenyl)-N-(((1r,4r)-4-((4-(4-((9-((1s,3s)-3-(2-phenylacetamido)cyclobutyl)-9H-purin-6-yl)amino)phenyl)piperazin-1-yl)methyl)cyclohexyl)methyl)acetamide]	20/20/20%	20/20/20%	20/20/20%	100/100/100%	100/100/100%	100/100/100%
Cc1cccc(C(=O)NC2CC(n3cnc4c(NCCC5CCN(CC6CCN(C(=O)CNc7cccc8c7C(=O)N([C@H]7CCC(=O)NC7=O)C8=O)CC6)CC5)ncnc43)C2)n1 (stereo partly drawn) [Compound 123, N-((1s,3s)-3-(6-((2-(1-((1-((2-(2,6-dioxopiperidin-3-yl)-1,3-dioxoisoindolin-4-yl)glycyl)piperidin-4-yl)methyl)piperidin-4-yl)ethyl)amino)-9H-purin-9-yl)cyclobutyl)-6-methylpicolinamide]	0/0/0%	0/0/0%	0/0/0%	10%	10%	20%
Cc1cccc(C(=O)NC2CC(n3cnc4c(NCCC5CCN(CC6CCN(c7cccc8c7C(=O)N([C@H]7CCC(=O)NC7=O)C8=O)CC6)CC5)ncnc43)C2)n1 (stereo partly drawn) [Compound 306, N-((1s,3s)-3-(6-((2-(1-((1-(2-(2,6-dioxopiperidin-3-yl)-1,3-dioxoisoindolin-4-yl)piperidin-4-yl)methyl)piperidin-4-yl)ethyl)amino)-9H-purin-9-yl)cyclobutyl)-6-methylpicolinamide]	30%	0%	10%	100/100/100%	100/100/100%	100/100/100%
Cc1cccc(C(=O)NC2CC(n3cnc4c(NCC5CCN(CC6CCN(c7ccc8c(c7)C(=O)N([C@@H]7CCC(=O)NC7=O)C8=O)CC6)CC5)ncnc43)C2)n1 (stereo partly drawn) [Compound 76, N-((1r,3r)-3-(6-(((1-((1-(2-(2,6-dioxopiperidin-3-yl)-1,3-dioxoisoindolin-5-yl)piperidin-4-yl)methyl)piperidin-4-yl)methyl)amino)-9H-purin-9-yl)cyclobutyl)-6-methylpicolinamide]	30%	20%	10%	100/100/100%	100/100/100%	100/100/100%
O=C1CC[C@H](N2C(=O)c3ccc(N4CCC(C(=O)N5CCC(CCCN6CCN(c7ccc(Nc8ncnc9c8ncn9C8CC(NC(=O)Cc9ccccc9)C8)cc7)CC6)CC5)CC4)cc3C2=O)C(=O)N1 (stereo partly drawn) [Compound 354, N-((1s,3s)-3-(6-((4-(4-(3-(1-(1-(2-(2,6-dioxopiperidin-3-yl)-1,3-dioxoisoindolin-5-yl)piperidin-4-carbonyl)piperidin-4-yl)propyl)piperazin-1-yl)phenyl)amino)-9H-purin-9-yl)cyclobutyl)-2-phenylacetamide]	10/10/10%	10/10/10%	10/10/10%	50%	50%	60%
O=C1CC[C@H](N2C(=O)c3ccc(N4CCC(C(=O)N5CCC(CN6CCN(c7ccc(Nc8ncnc9c8ncn9C8CC(NC(=O)c9c(Cl)cccc9Cl)C8)cc7)CC6)CC5)CC4)cc3C2=O)C(=O)N1 (stereo partly drawn) [Compound 395, 2,6-dichloro-N-((1s,3s)-3-(6-((4-(4-((1-(1-(2-(2,6-dioxopiperidin-3-yl)-1,3-dioxoisoindolin-5-yl)piperidin-4-carbonyl)piperidin-4-yl)methyl)piperazin-1-yl)phenyl)amino)-9H-purin-9-yl)cyclobutyl)benzamide]	0/0/0%	0/0/0%	0/0/0%	20/20/20%	20/20/20%	20/20/20%
Cc1cccc(C(=O)N[C@H]2C[C@@H](n3cnc4c(NCc5ccc(N6CCN(C(=O)CNc7ccc8c(c7)C(=O)N([C@H]7CCC(=O)NC7=O)C8=O)CC6)cc5)ncnc43)C2)n1 [Compound 149, N-((1s,3s)-3-(6-((4-(4-((2-(2,6-dioxopiperidin-3-yl)-1,3-dioxoisoindolin-5-yl)glycyl)piperazin-1-yl)benzyl)amino)-9H-purin-9-yl)cyclobutyl)-6-methylpicolinamide]	0/0/0%	0/0/0%	0/0/0%	10%	20%	20%
